Columns and labels:
[1] = test system: phenylquinone-induced writhing in mice; assay: Analgesic testing by phenylquinone-induced writhing test in mice; format: in vivo, male NMRI mice; details: Mus musculus, read-out: Antinociceptive action in % relative to control group; for inhibition in vivo at 10 mg/kg: 10 mg/kg intravenous
Protocol: 1.) Analgesic Testing by Writhing Test in Mice
The investigation into analgesic efficacy was performed by phenylquinone-induced writhing in mice (modified after: I. C. Hendershot J. Forsaith, J. Pharmacol. Exp. There. 125, 237-240 (1959)). The corresponding literature description is hereby introduced as a reference and is deemed to be part of the disclosure.
Male NMRI mice weighing from 25 to 30 g were used for this purpose. Groups of 10 animals per substance dose received, 10 minutes after intravenous administration of the compounds tested, 0.3 ml/mouse of a 0.02% aqueous solution of phenylquinone (phenylbenzoquinone, Sigma, Deisenhofen; solution prepared with addition of 5% of ethanol and stored in a water bath at 45° C.) administered intraperitoneally. The animals were placed individually in observation cages. A push button counter was used to record the number of pain-induced stretching movements (writhing reactions=straightening of the torso with stretching of the rear extremities) for 5-20 minutes after phenylquinone administration. The control was provided by animals who received only physiological common salt solution.
The compounds were tested at the standard dosage of 10 mg/kg. Inhibition of the writhing reactions by a substance was calculated according to the following formula: [formula]
1.) Analgesic Testing by Writhing Test in Mice:
The in-depth investigation into analgesic efficacy was performed using phenylquinone-induced writhing in mice, as described above.

[2] = test system: tail flick (pain latency) in mice; assay: Analgesic testing by tail flick test in mice; format: in vivo; details: Mus musculus, read-out: Antinociceptive action in % relative to control group; for inhibition in vivo at 1 mg/kg: 1 mg/kg intravenous
Text: 2.) Analgesic Testing by Tail Flick Test in Mice
The mice were each individually put in a test cage and the base of the tail was exposed to the focused heat flux from an electric lamp (tail flick type 50/08/1.bc, Labtec, Dr. Hess). The lamp intensity was so set that the time from switching on of the lamp until sudden flicking away of the tail (pain latency) in untreated mice amounted to 3 to 5 seconds. Prior to administration of the solutions containing the compound according to the invention or the respective comparison solutions, the mice were pre-tested twice within five minutes and the average value of these measurements was calculated as a pre-test average value.
The solutions of the compound according to the invention of the general formula I and the comparison solutions were then administered intravenously. Pain was measured in each case 10, 20, 40 and 60 minutes after intravenous administration. The analgesic action was determined as an increase in pain latency (% of the maximum possible antinociceptive effect) in accordance with the following formula: […]
In this formula, the time T0 is the latency time prior to administration, the time T1 is the latency time after administration of active ingredient combination and the time T2 is the maximum exposure period (12 seconds)
2.) Analgesic Testing by Tail Flick Test in Mice:
The in-depth investigation into analgesic efficacy was performed using the tail flick test in mice, as described above.

SMILES	inhibition in vivo at 10 mg/kg [1]	inhibition in vivo at 1 mg/kg [2]	further results
Fc1cc(Cl)ccc1NCCC1CCN(CCc2ccccc2)CC1 [Example 16, (4-Chloro-2-fluorophenyl)-[2-(1-phenethylpiperidin-4-yl)ethyl]amine]	80%	–	inhibition in vivo at 10 mg/kg ([2]; 10 mg/kg intravenous): 31%
CCC(=O)N(CCC1CCN(CCc2ccccc2)CC1)c1ccccc1 [Example 23, N-[2-(1-Phenethylpiperidin-4-yl)ethyl]-N-phenylpropionamide]	99%	–	–
CC(=O)N(CCC1CCN(CCc2ccccc2)CC1)c1cccc(C(F)(F)F)c1 [Example 21, N-[2-(1-Phenethylpiperidin-4-yl)ethyl]-N-(3-trifluoromethylphenyl)acetamide]	100%	34%	–
COc1ccc(NCCC2CCN(CCc3ccccc3)CC2)cc1 [Example 7, (4-Methoxyphenyl)-[2-(1-phenethylpiperidin-4-yl)ethyl]amine]	100%	–	–
COc1cccc(NCCC2CCN(CCc3ccccc3)CC2)c1 [Example 14, (3-Methoxyphenyl)-[2-(1-phenethylpiperidin-4-yl)ethyl]amine]	100%	–	–
COc1ccc(N(CCC2CCN(CCc3ccccc3)CC2)C(=O)c2ccccc2)cc1Cl [Example 20, N-(3-Chloro-4-methoxyphenyl)-N-[2-(1-phenethylpiperidin-4-yl)ethyl]benzamide]	88%	23%	–
O=C(CC1CCN(CCc2ccccc2)CC1)Nc1ccccc1 [Example 1, 2-(1-Phenethyl-piperidin-4-yl)-N-phenylacetamide]	–	–	inhibition in vivo at 0.1 mg/kg ([2]; 0.1 mg/kg intravenous): 56%
COc1cccc(NC(=O)CC2CCN(CCc3ccccc3)CC2)c1 [Example 9, N-(3-Methoxyphenyl)-2-(1-phenethyl-piperidin-4-yl)acetamide]	–	–	inhibition in vivo at 1 mg/kg ([1]; 1 mg/kg intravenous): 56%
Oc1cccc(NCCC2CCN(CCc3ccccc3)CC2)c1 [Example 17, 3-[2-(1-Phenethylpiperidin-4-yl)ethylamino]phenol]	100%	–	–
O=C(CC1CCN(CCc2ccccc2)CC1)Nc1ccc(Cl)cc1F [Example 11, N-(4-Chloro-2-fluorophenyl)-2-(1-phenethylpiperidin-4-yl)acetamide]	100%	–	–
FC(F)(F)c1cccc(NCCC2CCN(CCc3ccccc3)CC2)c1 [Example 13, [2-(1-Phenethyl-piperidin-4-yl)ethyl]-(3-trifluoromethyl-phenyl)amine]	–	31%	–
Oc1ccc(NCCC2CCN(CCc3ccccc3)CC2)cc1 [Example 15, 4-[2-(1-Phenethylpiperidin-4-yl)ethylamino]phenol]	100%	–	–
O=C(C=C1CCN(CCc2ccccc2)CC1)Nc1ccccc1 [Example 3, 2-(1-Phenethyl-piperidine-4-ylidene)-N-phenylacetamide]	69%	–	–
CCC(=O)N(CCC1CCN(CCc2ccccc2)CC1)c1ccc(OC)c(Cl)c1 [Example 19, N-(3-Chloro-4-methoxyphenyl)-N-[2-(1-phenethylpiperidin-4-yl)ethyl]propionamide]	100%	35%	–
COc1ccc(NC(=O)CC2CCN(CCc3ccccc3)CC2)cc1 [Example 5, N-(4-Methoxyphenyl)-2-(1-phenethyl-piperidin-4-yl)-acetamide]	100%	–	–
O=C(CC1CCN(CCc2ccccc2)CC1)Nc1ccccc1OC(F)(F)F [Example 6, 2-(1-Phenethyl-piperidin-4-yl)-N-(2-trifluoromethoxy-phenyl)acetamide]	99%	–	–
COc1ccc(NC(=O)CC2CCN(CCc3ccccc3)CC2)cc1Cl [Example 10, N-(3-Chloro-4-methoxyphenyl)-2-(1-phenethylpiperidin-4-yl)acetamide]	100%	–	–
COc1ccccc1NC(=O)CC1CCN(CCc2ccccc2)CC1 [Example 4, N-(2-Methoxyphenyl)-2-(1-phenethylpiperidin-4-yl)-acetamide]	100%	–	–
O=C(c1ccccc1)N(CCC1CCN(CCc2ccccc2)CC1)c1ccccc1 [Example 24, N-[2-(1-Phenethylpiperidin-4-yl)ethyl]-N-phenylbenzamide]	100%	24%	–
COc1ccc(N(CCC2CCN(CCc3ccccc3)CC2)C(C)=O)cc1Cl [Example 18, N-(3-Chloro-4-methoxyphenyl)-N-[2-(1-phenethylpiperidin-4-yl)ethyl]acetamide]	100%	–	–
O=C(CC1CCN(CCc2ccccc2)CC1)Nc1cccc(C(F)(F)F)c1 [Example 12, 2-(1-Phenethylpiperidin-4-yl)-N-(3-trifluoromethyl-phenyl)acetamide]	–	21%	–
Oc1ccccc1NCCC1CCN(CCc2ccccc2)CC1 [Example 8, 2-[2-(1-Phenethylpiperidin-4-yl)ethylamino]phenol]	100%	–	–
CC(=O)N(CCC1CCN(CCc2ccccc2)CC1)c1ccccc1 [Example 22, N-[2-(1-Phenethylpiperidin-4-yl)ethyl]-N-phenylacetamide]	–	24%	–

From patent US20040171640A1, “Substituted 1-phenethylpiperidine compounds used as inter alia analgesics” (priority 2001, published 2004)
